This note sets out measurements from patent publication EP1849775A1, “Cycloalkane-substituted pyrazoline compounds, their preparation and use as medicaments” (LABORATORIOS DEL DR. ESTEVE, S.A., priority 2006, dated 2007).

pIC50: −log10 of the molar value.

The test system of one assay is cannabinoid receptors. Description: Mouse tetrad model, antagonistic activity against Win 55212-2. The following applies: Male NMRI mice; substance injected intravenously 5 minutes before intravenous 1.25 mg/kg Win-55,212; tetrad parameter not specified. The assay is classed as in vivo. An excerpt:
II. In-vivo bioassay system for determination of cannabinoid activity
Substances with affinity for cannabinoid receptors are known to produce a wide range of pharmacological effects. It is also known that intravenous administration of a substance with affinity for cannabinoid receptors in mice produces analgesia , hypothermia, sedation and catalepsy. Individually, none of these effects can be considered as proof that a tested substance has affinity for cannabinoid-receptors, since all of these effects are common for various classes of centrally active agents. However, substances, which show all of these effects, i.e. substances that are active in this so-called tetrad model are considered to have affinity for the cannabinoid receptors. It has further been shown that cannabinoid receptor antagonists are higly effective in blocking the effects of a cannabinoid agonist in the mouse tetrad model.
The tetrad model is described, for example, in the publication of A. C. Howlett et al, International Union of Pharmacology XXVII. […]
Before testing in the behavioral procedures given below, mice are acclimatized to the experimental setting. Pre-Treatment control values are determined for analgesia hot plate latency (in seconds), rectal temperature, sedation and catalepsy.
In order to determine the agonistic activty of the substance to be tested, the mice are injected intravenously with the substance to be tested or the vehicle alone. 15 minutes after injection, latency in hot plate analgesia is measured. Rectal temperature, sedation and catalepsy are measured 20 minutes after injection.
In order to determine the antagonistic activity the identical procedure is used as for the determination of the agonistic effects, but with the difference that the substance to be evaluated for its antagonistic activity is injectected 5 minutes before the intravenous injection of 1.25 mg/kg Win-55,212 a known cannabinoid-receptor agonist. […]
The degree of analgesia is calculated from the formula: %MPE of Analgesia = (PT-B)/(PC-B) × 100 [formula] […]

The next assay concerns the target T1, CB1-Receptor (Homo sapiens, UniProt P21554).
T1 construct: purchased Receptor Biology, Inc
Description: In-vitro determination of affinity to CB1 receptor (radioligand binding). The following applies: Radiologand:[^3H]-CP55940, transfected human CB1 receptors. How it is done:
I. In-vitro determination of affinity to CB1/CB2-Receptors
The in-vitro determination of the affinity of the inventive quaternary ammonium salts of substituted pyrazoline compounds to CB1/CB2-Rezeptors is carried out as described in the publication of Ruth A. Ross, Heather C. Brockie et al., "Agonist-inverse agonist characterization at CB1 and CB2 cannabinoid receptors of L-759633, L759656 and AM630", British Journal of Pharmacology, 126, 665-672, (1999), whereby the transfected human CB1 and CB2 receptors of Receptor Biology, Inc. are used. The radioligand used for both receptors is [3H]-CP55940. The respective parts of the description are hereby incorporated by reference and forms part of the present disclosure.
The affinity of the inventive substituted pyrazoline compounds to CB1/CB2 receptors was determined as described above.

T1 sequence (P21554 whole entry): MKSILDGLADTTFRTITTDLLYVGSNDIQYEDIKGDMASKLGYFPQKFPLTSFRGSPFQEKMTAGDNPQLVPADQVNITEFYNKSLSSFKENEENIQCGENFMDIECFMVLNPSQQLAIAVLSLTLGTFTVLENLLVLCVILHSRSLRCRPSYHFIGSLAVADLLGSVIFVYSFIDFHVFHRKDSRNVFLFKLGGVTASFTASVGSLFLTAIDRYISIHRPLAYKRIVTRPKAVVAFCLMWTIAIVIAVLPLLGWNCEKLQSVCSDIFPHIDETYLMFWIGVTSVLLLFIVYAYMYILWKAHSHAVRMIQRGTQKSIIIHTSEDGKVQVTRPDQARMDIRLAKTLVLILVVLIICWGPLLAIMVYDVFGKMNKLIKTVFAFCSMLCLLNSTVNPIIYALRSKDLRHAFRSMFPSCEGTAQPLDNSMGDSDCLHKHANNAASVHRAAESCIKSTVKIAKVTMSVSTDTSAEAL

Turning to `O=C(NC1CCCCCC1)C1=NN(c2ccc(Cl)cc2Cl)C(c2ccc(Cl)cc2)C1` (stereo not drawn) [Example 1, 5-(4-chlorophenyl)-N-cycloheptyl-1-(2,4-dichlorophenyl)-4,5-dihydro-1H-pyrazole-3-carboxamide], the “Antagonistic Effect in (%)” value with cannabinoid receptors is given as 84%. At CB1-Receptor, this compound showed a pIC50 of 7.00.

Regarding `O=C(NC1CCCCCC1)C1=NN(c2ccc(Cl)cc2Cl)[C@@H](c2ccc(Cl)cc2)C1` [Example 2, (R)-5-(4-chlorophenyl)-N-cycloheptyl-1-(2,4-dichlorophenyl)-4,5-dihydro-1H-pyrazole-3-carboxamide], the “Antagonistic Effect in (%)” value with cannabinoid receptors stood at 94%. On CB1-Receptor, this compound showed a negative logarithm of the IC50 (pIC50) of 7.80.

On to `O=C(NC1CCCCCCC1)C1=NN(c2ccc(Cl)cc2Cl)C(c2ccc(Cl)cc2)C1` (stereo not drawn) [Example 5, 5-(4-chlorophenyl)-N-cyclooctyl-1-(2,4-dichlorophenyl)-4,5-dihydro-1H-pyrazole-3-carboxamide], for which the “Antagonistic Effect in (%)” value in the assay on cannabinoid receptors worked out at 62±5%. Further, the pIC50 on CB1-Receptor is 7.25.
